Assay results from article PMC6104605, “Discovery of new chromen-4-one derivatives as telomerase inhibitors through regulating expression of dyskerin” (Journal of Enzyme Inhibition and Medicinal Chemistry, 2018).

Columns and labels:
human glioma cell U87 = assay: MTT anticancer assay, U87; type: cell-based; conditions: 48 h exposure, mean ± SD, dash = footnote d 'None'
Experimental: (§1) The MTT was purchased from Sigma. Cell Cycle Analysis Kit and Apoptosis Analysis Kit were purchased from Bestbio (China). Mitochondrial membrane potential assay kit with JC-1 was purchased from Beyotime (China). All the materials were used as received without further purification unless noted specifically. The cell culture was maintained on DMEM medium (Hyclone, US) supplemented with 10% fetal bovine serum (Sijiqing, China), 100 U/mL penicillin and 100 µg/mL streptomycin in 25-cm^2 culture flasks at 37 °C humidified atmosphere with 5% CO2. Drugs were dissolved in DMSO and filtered through 0.22-µm pore-size filter units before addition to cell line appropriate media. When tumor cells were grown to log phase, diluting to 5 × 10^4 cells mL^−1 with the complete medium, 100 µL of the obtained cell suspension was added to each well of 96-well culture plates. The subsequent incubation was performed at 37 °C, 5% CO2 atmosphere for 48 h before subjecting to anti-proliferation assessment. After 48-h exposure period, 20 µL of PBS containing 5 mg·mL^−1 of MTT was added to each well. After 4 h, the medium was replaced by 150 µL DMSO to dissolve the purple formazan crystals produced. The absorbance at 492 nm of each well was measured on an ELISA plate reader. The data represented the mean of three experiments in triplicate and were expressed as means ± SD. The IC50 value was defined as the concentration at which 50% of the cells could survive. The following human tumor cell lines were used in the assay: human gastric cancer cells SGC-7901, human liver cancer cell SMMC-7721 and HepG2, human cervical cancer cell Hela and human glioma cell U87.

[1] = tested on: human liver cancer cell HepG2; assay: MTT anticancer assay, HepG2; type: cell-based; conditions: 48 h exposure, mean ± SD, dash = footnote d 'None'
Experimental: as §1

γH2AX = assay: Western blot, γH2AX; type: cell-based, human; conditions: SGC-7901, 1, 2 and 4 μM, 48 h
Experimental: (§2) An equivalent volume of 5 × SDS-sample buffer was added to cell lysates and boiled for 10 min. The supernatants were subjected to electrophoresis on SDS-PAGE gels and transferred to PVDF membrane by using a Bio-Rad apparatus. Membranes were blocked for 3 h at room temperature in TBST containing 5% non-fat dried milk and probed overnight at 4 °C with antibodies. CyclinD1 (abcam, ab134175, 1:10000), CDC25A (abcam, ab156574, 1:1000), CDC25C (abcam, ab32051, 1:1000), bcl-2 (abcam, ab32124,1:1000), bax (abcam, ab32503, 1:1000), PARP (abcam, ab191217, 1:1000), γH2AX (abcam, ab81299, 1:5000), dyskerin (abcam, ab156877, 1:1000), NHP2 (abcam, ab180498, 1:1000), NOP10 (abcam, ab133726, 1:1000) antibody was performed with rabbit primary antibody. Otherwise, β-actin (ZSGB-BIO, 1:1000) detection was performed with mouse primary antibody which was served as internal controls. Protein bands of β-actin was visualised using peroxidase-labeled goat anti-mouse and others were visualised using peroxidase-labeled goat anti-rabbit secondary antibody (1:5000 dilution, 1 h, room temperature), and the protein expression signals were detected by the BeyoECL Plus (Beyotime).

SGC-7901 cells = assay: Annexin V-FITC/PI apoptosis analysis by flow cytometry; type: cell-based, human; conditions: 48 h, control 3.06%
Experimental: Apoptosis was detected by flow cytometric analysis of annexin V staining. Annexin V-FITC/PI assay was performed according to previously described. First, adherent SGC-7901 cells were harvested and suspended in the annexin-binding buffer (1 × 10^6 cells/mL). Then, cells were incubated with V-FITC buffer and incubated with annexin V-FITC for 15 min and then stained by PI for 5 min at 4 °C in the dark, immediately analyzed by flow cytometry. The data are presented as biparametric dot plots showing PI red fluorescence versus annexin V-FITC green fluorescence.

NHP2 = assay: Western blot, NHP2; type: cell-based, human; conditions: SGC-7901, 1, 2 and 4 μM, 48 h
Experimental: as §2

[2] = tested on: human gastric cancer cells SGC-7901; assay: MTT anticancer assay, SGC-7901; type: cell-based
Experimental: as §1, with “The absorbance at 492 nm of each well was measured on an ELISA plate reader.” left out, “SD.” for “SD. The IC50 value was defined as the concentration at which 50% of the cells could survive. The following human tumor cell lines were used in the assay: human gastric cancer cells SGC-7901, human liver cancer cell SMMC-7721 and HepG2, human cervical cancer cell Hela and human glioma cell U87.”

dyskerin = assay: Immunofluorescence staining of dyskerin localisation; type: cell-based, human; conditions: SGC-7901, 2 µM, 48 h
Experimental: SGC-7901 cells were grown on glass coverslips in a 6-well culture plate until approximately 30–40% confluent and then treated with compound 5i for 48 h. The coverslips were fixed in 4% paraformaldehyde for 15 min, followed by 0.5% Triton X-100 for 30 min at room temperature. Fixed and permeabilised cells were blocked with 3% BSA for 30 min at room temperature. Then, the cells were respectively immunolabeled with the appropriate primary and secondary antibodies. FITC-conjugated anti-rabbit IgG (ZSBIO, 1:100) for dyskerin emit green fluorescence. DAPI was used for nuclear staining.

[3] = Octanol water partition coefficient, shake flask; type: physicochemical; conditions: octanol/PBS pH 7.4, 37 °C
Experimental: Octanole water partition coefficients was measured by the method of shake flask with slight modification. The aqueous phase was replaced by PBS (pH 7.4). First, the phase of octanol and the aqueous were saturated with each other. Then, the mixture containing title compounds was shaken at 37 °C. After 24 h, the mixture was centrifuged at 4000 rpm for 30 min, followed by the measured with ultraviolet spectrophotometer. At last, logP values were calculated.

[4] = tested on: human cervical cancer cell Hela; assay: MTT anticancer assay, Hela; type: cell-based; conditions: MTT, 48 h exposure, mean ± SD, read-out: IC50 Hela
Experimental: as §1, with “The absorbance at 492 nm of each well was measured on an ELISA plate reader.” left out, “SD.” for “SD. The IC50 value was defined as the concentration at which 50% of the cells could survive. The following human tumor cell lines were used in the assay: human gastric cancer cells SGC-7901, human liver cancer cell SMMC-7721 and HepG2, human cervical cancer cell Hela and human glioma cell U87.”

COc1cc(OC)c2c(=O)c(OCCCCN3CCN(C(=O)c4ccncc4)CC3)c(-c3cc(OC)c(OC)c(OC)c3)oc2c1 [Compound 5i, 3-(4-(4-isonicotinoylpiperazin-1-yl)butoxy)-5,7-dimethoxy-2-(3,4,5-trimethoxyphenyl)-4H-chromen-4-one]
IC50 (human glioma cell U87): 2500 ± 110 nM | IC50 [1]: 4120 ± 510 nM | expression of γH2AX (western blot) (γH2AX): significantly decrease | Apoptosis ratio (SGC-7901 cells; SGC-7901, 1 µM): 12.47% | Apoptosis ratio (SGC-7901 cells; SGC-7901, 2 µM): 26.3% | Apoptosis ratio (SGC-7901 cells; SGC-7901, 4 µM): 48.7% | NHP2 protein level (western blot) (NHP2): no significant changes | activity against SGC-7901 cells (in words) [2]: good activity | IC50 ([2]; Homo sapiens, SGC-7901, MTT, 48 h exposure, mean ± SD): 1350 ± 170 nM | cytoplasm localisation dyskerin (immunofluorescence) (dyskerin): significantly reduced | nucleus dyskerin (immunofluorescence) (dyskerin): almost all the nucleus dyskerin was disappeared | logP at 24 h ([3]; octanol/PBS (pH 7.4), pH 7.4, shake flask, read-out: Log p (octanole water partition coefficient)): 3.01 | Log p (octanole water partition coefficient) ([3]; shake flask, 24 h): 2.81 | IC50 [4]: 1020 ± 210 nM
